According to patent US12258328B2, “6-membered heteroaryl-containing aminopyridine compounds as EGFR inhibitors” (YUHAN CORPORATION, priority 2021, dated 2025):
Like-named read-outs stand apart in the source and are kept apart here.

Legend:
[1] = target: EGFR L858R/T790M/C797S (Homo sapiens, UniProt P00533, C797S/L858R/T790M); test: Biochemical EGFR kinase assay (Lance Ultra TR-FRET), triple mutant L858R/T790M/C797S
Summary of the method: (§1)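 Enzyme reactions lasted 1 hour at room temperature with test compounds between 0.003 and 10 μM, followed by 10 mM EDTA quench.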

[2] = target: EGFR wildtype (Homo sapiens, UniProt P00533); test: Biochemical EGFR kinase assay (Lance Ultra TR-FRET), wildtype
Summary of the method: as §1

[3] = target: EGFR del19/T790M/C797S (Homo sapiens, UniProt P00533, C797S/DEL746-750/T790M); test: Biochemical EGFR kinase assay (Lance Ultra TR-FRET), triple mutant del19/T790M/C797S
Summary of the method: as §1

[4] = target: EGFR L858R/C797S (Homo sapiens, UniProt P00533, C797S/L858R); test: Biochemical EGFR kinase assay (Lance Ultra TR-FRET), double mutant L858R/C797S
Summary of the method: as §1

[5] = target: EGFR del19/C797S (Homo sapiens, UniProt P00533, C797S/DEL746-750); test: Biochemical EGFR kinase assay (Lance Ultra TR-FRET), double mutant del19/C797S
Summary of the method: as §1

[6] = IC50 L858R/T790M/C797S (nM) 100 μM ATP, 100 μM ATP
[7] = IC50 WT (nM) 100 μM ATP, 100 μM ATP
[8] = IC50 del19/T790M/C797S (nM) 100 μM ATP, 100 μM ATP
[9] = IC50 L858R/C797S (nM) 100 μM ATP, 100 μM ATP
[10] = IC50 del19/C797S (nM) 100 μM ATP, 100 μM ATP
[11] = Km ATP, read-out: IC50 L858R/T790M/C797S (nM) Km ATP
[12] = Km ATP, read-out: IC50 WT (nM) Km ATP
[13] = Km ATP, read-out: IC50 del19/T790M/C797S (nM) Km ATP
[14] = Km ATP, read-out: IC50 L858R/C797S (nM) Km ATP
[15] = Km ATP, read-out: IC50 del19/C797S (nM) Km ATP

Sequence of EGFR wildtype (P00533 25-1210): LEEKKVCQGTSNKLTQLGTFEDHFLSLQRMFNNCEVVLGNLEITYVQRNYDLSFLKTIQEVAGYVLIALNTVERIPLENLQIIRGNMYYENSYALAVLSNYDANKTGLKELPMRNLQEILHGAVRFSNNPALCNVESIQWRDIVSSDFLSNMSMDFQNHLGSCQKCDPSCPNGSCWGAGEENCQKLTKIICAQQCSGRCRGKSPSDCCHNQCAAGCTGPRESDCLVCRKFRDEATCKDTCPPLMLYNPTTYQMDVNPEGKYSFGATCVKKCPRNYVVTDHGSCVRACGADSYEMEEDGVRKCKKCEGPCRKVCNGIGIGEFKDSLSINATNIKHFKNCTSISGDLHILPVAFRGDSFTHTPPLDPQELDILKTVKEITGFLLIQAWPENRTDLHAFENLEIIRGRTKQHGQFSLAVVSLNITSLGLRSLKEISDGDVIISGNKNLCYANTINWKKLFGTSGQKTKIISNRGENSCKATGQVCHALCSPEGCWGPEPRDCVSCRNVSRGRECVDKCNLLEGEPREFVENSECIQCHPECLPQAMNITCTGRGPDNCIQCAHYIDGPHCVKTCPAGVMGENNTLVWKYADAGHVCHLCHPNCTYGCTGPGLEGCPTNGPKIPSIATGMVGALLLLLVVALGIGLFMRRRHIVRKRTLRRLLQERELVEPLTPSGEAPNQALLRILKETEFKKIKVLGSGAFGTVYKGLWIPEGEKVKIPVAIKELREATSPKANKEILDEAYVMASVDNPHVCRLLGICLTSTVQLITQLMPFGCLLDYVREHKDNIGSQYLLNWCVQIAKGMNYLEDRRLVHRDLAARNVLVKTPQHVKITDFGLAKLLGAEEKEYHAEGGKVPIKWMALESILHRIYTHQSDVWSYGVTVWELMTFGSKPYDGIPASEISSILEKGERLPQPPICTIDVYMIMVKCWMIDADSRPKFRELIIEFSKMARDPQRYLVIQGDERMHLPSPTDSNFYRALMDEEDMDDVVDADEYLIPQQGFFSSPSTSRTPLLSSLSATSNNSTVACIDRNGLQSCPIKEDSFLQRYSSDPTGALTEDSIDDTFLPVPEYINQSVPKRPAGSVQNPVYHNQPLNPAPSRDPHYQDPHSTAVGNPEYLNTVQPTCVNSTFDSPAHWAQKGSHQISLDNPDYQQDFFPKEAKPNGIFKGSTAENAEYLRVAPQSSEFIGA
Sequence of EGFR L858R/C797S (P00533 25-1210 C797S/L858R): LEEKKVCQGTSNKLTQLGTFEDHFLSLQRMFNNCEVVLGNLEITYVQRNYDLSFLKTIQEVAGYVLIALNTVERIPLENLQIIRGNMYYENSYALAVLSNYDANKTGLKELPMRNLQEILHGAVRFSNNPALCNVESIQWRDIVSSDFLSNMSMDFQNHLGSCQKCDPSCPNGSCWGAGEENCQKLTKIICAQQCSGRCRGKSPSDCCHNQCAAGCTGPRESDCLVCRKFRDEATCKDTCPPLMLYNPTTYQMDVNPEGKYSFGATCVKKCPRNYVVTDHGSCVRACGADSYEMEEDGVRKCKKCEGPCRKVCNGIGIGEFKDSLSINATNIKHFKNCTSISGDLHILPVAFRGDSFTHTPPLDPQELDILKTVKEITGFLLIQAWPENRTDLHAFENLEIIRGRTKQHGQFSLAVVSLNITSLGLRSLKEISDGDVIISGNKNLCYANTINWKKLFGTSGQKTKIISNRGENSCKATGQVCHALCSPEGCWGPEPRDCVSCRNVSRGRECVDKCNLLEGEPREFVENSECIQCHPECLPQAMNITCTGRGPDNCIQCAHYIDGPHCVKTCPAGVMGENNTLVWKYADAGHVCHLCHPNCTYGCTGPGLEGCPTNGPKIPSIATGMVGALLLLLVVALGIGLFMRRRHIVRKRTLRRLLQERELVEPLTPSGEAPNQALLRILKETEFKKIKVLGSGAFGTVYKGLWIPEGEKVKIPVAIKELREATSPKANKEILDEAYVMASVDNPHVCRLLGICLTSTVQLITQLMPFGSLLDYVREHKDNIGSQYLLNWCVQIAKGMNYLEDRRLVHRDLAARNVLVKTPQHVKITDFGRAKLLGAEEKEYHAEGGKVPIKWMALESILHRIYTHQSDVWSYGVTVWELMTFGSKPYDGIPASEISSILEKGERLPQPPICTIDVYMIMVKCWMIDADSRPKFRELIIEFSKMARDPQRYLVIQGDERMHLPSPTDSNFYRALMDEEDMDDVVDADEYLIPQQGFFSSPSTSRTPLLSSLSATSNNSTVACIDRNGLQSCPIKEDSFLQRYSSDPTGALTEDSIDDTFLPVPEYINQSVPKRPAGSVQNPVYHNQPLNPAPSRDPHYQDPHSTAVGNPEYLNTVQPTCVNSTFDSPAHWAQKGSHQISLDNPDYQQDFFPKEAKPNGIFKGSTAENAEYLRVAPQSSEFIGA
Sequence of EGFR del19/T790M/C797S (P00533 with tags, fused parts or gaps DEL746-750/T790M/C797S): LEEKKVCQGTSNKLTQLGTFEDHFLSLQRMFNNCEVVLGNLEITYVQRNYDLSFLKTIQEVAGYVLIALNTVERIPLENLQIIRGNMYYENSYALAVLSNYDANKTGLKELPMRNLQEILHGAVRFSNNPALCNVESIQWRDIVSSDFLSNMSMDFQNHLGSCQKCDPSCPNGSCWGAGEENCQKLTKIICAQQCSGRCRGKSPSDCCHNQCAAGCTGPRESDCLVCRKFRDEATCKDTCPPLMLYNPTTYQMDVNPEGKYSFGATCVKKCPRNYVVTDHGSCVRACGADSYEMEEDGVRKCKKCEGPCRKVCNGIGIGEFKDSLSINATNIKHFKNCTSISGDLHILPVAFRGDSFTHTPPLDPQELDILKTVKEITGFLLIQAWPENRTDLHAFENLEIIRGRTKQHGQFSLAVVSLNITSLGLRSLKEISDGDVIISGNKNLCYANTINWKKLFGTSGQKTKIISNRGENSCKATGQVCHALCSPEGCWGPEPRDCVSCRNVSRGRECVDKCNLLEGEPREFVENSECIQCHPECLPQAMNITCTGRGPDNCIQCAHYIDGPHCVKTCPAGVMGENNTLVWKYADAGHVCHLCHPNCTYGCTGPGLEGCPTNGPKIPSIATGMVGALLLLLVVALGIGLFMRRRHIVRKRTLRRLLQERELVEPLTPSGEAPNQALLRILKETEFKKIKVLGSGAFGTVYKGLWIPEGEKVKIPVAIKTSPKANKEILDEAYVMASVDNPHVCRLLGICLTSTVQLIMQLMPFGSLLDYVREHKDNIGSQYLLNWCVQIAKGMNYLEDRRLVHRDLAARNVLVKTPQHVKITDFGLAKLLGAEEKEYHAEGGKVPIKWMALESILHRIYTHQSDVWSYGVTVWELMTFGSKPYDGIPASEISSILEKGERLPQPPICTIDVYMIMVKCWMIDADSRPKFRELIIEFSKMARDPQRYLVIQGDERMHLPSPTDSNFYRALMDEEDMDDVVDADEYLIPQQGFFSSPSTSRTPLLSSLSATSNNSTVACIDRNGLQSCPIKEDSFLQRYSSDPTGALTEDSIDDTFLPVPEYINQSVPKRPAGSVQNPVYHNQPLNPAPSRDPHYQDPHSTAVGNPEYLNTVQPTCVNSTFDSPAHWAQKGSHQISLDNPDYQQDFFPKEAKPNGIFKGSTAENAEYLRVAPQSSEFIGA
Sequence of EGFR del19/C797S (P00533 with tags, fused parts or gaps DEL746-750/C797S): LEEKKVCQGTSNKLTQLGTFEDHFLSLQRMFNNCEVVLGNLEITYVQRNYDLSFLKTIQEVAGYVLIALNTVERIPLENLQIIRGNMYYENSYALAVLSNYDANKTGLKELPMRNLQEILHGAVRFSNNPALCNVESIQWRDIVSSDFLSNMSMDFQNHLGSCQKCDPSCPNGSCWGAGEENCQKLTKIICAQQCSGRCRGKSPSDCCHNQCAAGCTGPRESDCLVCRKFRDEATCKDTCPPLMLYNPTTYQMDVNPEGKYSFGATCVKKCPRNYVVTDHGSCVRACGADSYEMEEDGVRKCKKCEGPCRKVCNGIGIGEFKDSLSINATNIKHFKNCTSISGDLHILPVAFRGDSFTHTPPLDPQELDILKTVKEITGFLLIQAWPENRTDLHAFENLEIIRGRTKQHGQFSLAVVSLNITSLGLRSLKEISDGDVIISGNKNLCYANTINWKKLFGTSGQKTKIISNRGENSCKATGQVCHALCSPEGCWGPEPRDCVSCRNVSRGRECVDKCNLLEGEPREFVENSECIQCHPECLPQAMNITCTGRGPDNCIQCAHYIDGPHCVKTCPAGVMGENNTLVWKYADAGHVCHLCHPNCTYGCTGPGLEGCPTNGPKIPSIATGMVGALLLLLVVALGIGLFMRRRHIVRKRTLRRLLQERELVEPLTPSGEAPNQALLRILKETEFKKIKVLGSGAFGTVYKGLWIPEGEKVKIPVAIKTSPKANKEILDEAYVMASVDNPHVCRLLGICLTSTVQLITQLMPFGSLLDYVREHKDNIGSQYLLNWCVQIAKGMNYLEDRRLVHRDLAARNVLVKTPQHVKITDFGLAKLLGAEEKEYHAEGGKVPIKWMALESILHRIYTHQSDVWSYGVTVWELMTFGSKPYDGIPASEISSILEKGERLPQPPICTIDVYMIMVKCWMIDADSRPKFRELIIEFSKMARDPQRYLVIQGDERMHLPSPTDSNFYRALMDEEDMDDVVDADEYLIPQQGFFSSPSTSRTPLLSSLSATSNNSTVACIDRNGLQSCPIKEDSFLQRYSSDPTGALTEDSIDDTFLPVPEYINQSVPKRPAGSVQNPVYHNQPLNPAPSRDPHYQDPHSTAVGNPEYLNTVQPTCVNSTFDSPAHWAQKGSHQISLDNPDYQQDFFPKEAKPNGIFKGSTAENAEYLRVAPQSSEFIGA

SMILES	IC50 [1, 6] [nM]	IC50 [2, 7] [nM]	IC50 [3, 8] [nM]	IC50 [4, 9] [nM]	IC50 [5, 10] [nM]	IC50 [1, 11] [nM]	IC50 [2, 12] [nM]	IC50 [3, 13] [nM]	IC50 [4, 14] [nM]	IC50 [5, 15] [nM]
C[C@]1(O)CC[C@@H](Nc2cc(Nc3ccnc(-c4cnn(S(=O)(=O)C5CC5)c4)n3)ncc2-c2cnc(N3CCOCC3)cn2)CC1 [Example 44, (1s,4s)-4-((2-((2-(1-(Cyclopropylsulfonyl)-1H-pyrazol-4-yl)pyrimidin-4-yl)amino)-5-(5-morpholinopyrazin-2-yl)pyridin-4-yl)amino)-1-methylcyclohexan-1-ol]	0.6	> 10000	0.6	7.1	0.8	–	–	–	–	–
CC(C)(O)[C@H]1CC[C@@H](Nc2cc(Nc3ccnc(-c4cnn(S(=O)(=O)C5CC5)c4)n3)ncc2-c2ccc(N3CCOCC3)cn2)CC1 [Example 45, 2-((1s,4s)-4-((6′-((2-(1-(Cyclopropylsulfonyl)-1H-pyrazol-4-yl)pyrimidin-4-yl)amino)-5-morpholino-[2,3′-bipyridin]-4′-yl)amino)cyclohexyl)propan-2-ol]	2.6	602	1.7	4.2	1.7	–	–	–	–	–
CN1CCN(c2ccc(-c3cnc(Nc4ccnc(-c5cnn(S(=O)(=O)C6CC6)c5)n4)cc3N[C@H]3CC[C@@](C)(O)CC3)nn2)CC1 [Example 46, (1s,4s)-4-((2-((2-(1-(Cyclopropylsulfonyl)-1H-pyrazol-4-yl)pyrimidin-4-yl)amino)-5-(6-(4-methylpiperazin-1-yl)pyridazin-3-yl)pyridin-4-yl)amino)-1-methylcyclohexan-1-ol]	0.2	> 10000	0.3	0.9	0.4	0.1	0.9	0.2	0.2	0.2
C[C@]1(O)CC[C@@H](Nc2cc(Nc3ccnc(-c4cnn(S(=O)(=O)C5CC5)c4)n3)ncc2-c2ccc(N3CCC(F)(F)CC3)cn2)CC1 [Example 47, (1s,4s)-4-((6′-((2-(1-(Cyclopropylsulfonyl)-1H-pyrazol-4-yl)pyrimidin-4-yl)amino)-5-(4,4-difluoropiperidin-1-yl)-[2,3′-bipyridin]-4′-yl)amino)-1-methylcyclohexan-1-ol]	3	> 10000	–	17.7	4.2	1	7.1	2	7.9	3.2
C[C@]1(O)CC[C@@H](Nc2cc(Nc3ccnc(-c4cnn(S(=O)(=O)C5CC5)c4)n3)ncc2-c2cc(N3CCOCC3)ccn2)CC1 [Example 48, (1s,4s)-4-((6′-((2-(1-(Cyclopropylsulfonyl)-1H-pyrazol-4-yl)pyrimidin-4-yl)amino)-4-morpholino-[2,3′-bipyridin]-4′-yl)amino)-1-methylcyclohexan-1-ol]	2.1	> 10000	0.6	83.3	5.8	0.3	24.7	0.5	14.1	–
C[C@]1(O)CC[C@@H](Nc2cc(Nc3ccnc(-c4cnn(S(=O)(=O)C5CC5)c4)n3)ncc2-c2ccc(N3CCC(O)CC3)cn2)CC1 [Example 49, 1-(6′-((2-(1-(Cyclopropylsulfonyl)-1H-pyrazol-4-yl)pyrimidin-4-yl)amino)-4′-(((1s,4s)-4-hydroxy-4-methylcyclohexyl)amino)-[2,3′-bipyridin]-5-yl) piperidin-4-ol]	0.3	294	0.3	2.4	0.8	0.1	0.5	0.3	0.3	0.5
Cc1cc(-c2cnc(Nc3ccnc(-c4cnn(S(=O)(=O)C5CC5)c4)n3)cc2N[C@H]2CC[C@@](C)(O)CC2)nnc1C [Example 50, (1s,4s)-4-((2-((2-(1-(Cyclopropylsulfonyl)-1H-pyrazol-4-yl)pyrimidin-4-yl)amino)-5-(5,6-dimethylpyridazin-3-yl)pyridin-4-yl)amino)-1-methylcyclohexan-1-ol]	0.1	> 10000	0.2	2.2	–	0.1	–	0.3	0.4	0.5
C[C@]1(O)CC[C@@H](Nc2cc(Nc3ccnc(-c4cnn(S(=O)(=O)C5CC5)c4)n3)ncc2-c2ccc(C(F)(F)F)nn2)CC1 [Example 51, (1s,4s)-4-((2-((2-(1-(Cyclopropylsulfonyl)-1H-pyrazol-4-yl)pyrimidin-4-yl)amino)-5-(6-(trifluoromethyl)pyridazin-3-yl)pyridin-4-yl)amino)-1-methylcyclohexan-1-ol]	0.6	> 10000	0.6	16.7	10.6	0.3	–	0.8	1	3.1
Cc1ccc(-c2cnc(Nc3ccnc(-c4cnn(S(=O)(=O)C5CC5)c4)n3)cc2N[C@H]2CC[C@@](C)(O)CC2)nn1 [Example 52, (1s,4s)-4-((2-((2-(1-(Cyclopropylsulfonyl)-1H-pyrazol-4-yl)pyrimidin-4-yl)amino)-5-(6-methylpyridazin-3-yl)pyridin-4-yl)amino)-1-methylcyclohexan-1-ol]	0.3	> 10000	0.5	–	0.6	0.1	3	0.3	0.6	0.5
C[C@]1(O)CC[C@@H](Nc2cc(Nc3ccnc(-c4cnn(S(=O)(=O)C5CC5)c4)n3)ncc2-c2ccc(N3CCCCC3)cn2)CC1 [Example 54, (1s,4s)-4-((6′-((2-(1-(Cyclopropylsulfonyl)-1H-pyrazol-4-yl)pyrimidin-4-yl)amino)-5-(piperidin-1-yl)-[2,3′-bipyridin]-4′-yl)amino)-1-methylcyclohexan-1-ol]	5.1	5840	11.4	7.3	9.7	–	9.2	12.5	1.4	5.6
CN1CCN(Cc2ccnc(-c3cnc(Nc4ccnc(-c5cnn(S(=O)(=O)C6CC6)c5)n4)cc3N[C@H]3CC[C@@](C)(O)CC3)c2)CC1 [Example 55, (1s,4s)-4-((6′-((2-(1-(Cyclopropylsulfonyl)-1H-pyrazol-4-yl)pyrimidin-4-yl)amino)-4-((4-methylpiperazin-1-yl)methyl)-[2,3′-bipyridin]-4′-yl)amino)-1-methylcyclohexan-1-ol]	0.4	754	1.7	1	1.1	–	1.9	0.7	0.3	0.5
COc1cnc(-c2cnc(Nc3ccnc(-c4cnn(S(=O)(=O)C5CC5)c4)n3)cc2N[C@H]2CC[C@@](C)(O)CC2)cn1 [Example 56, (1s,4s)-4-((2-((2-(1-(Cyclopropylsulfonyl)-1H-pyrazol-4-yl)pyrimidin-4-yl)amino)-5-(5-methoxypyrazin-2-yl)pyridin-4-yl)amino)-1-methylcyclohexan-1-ol]	2.4	> 10000	1.4	122	8.8	–	169	–	–	5.9
O=S(=O)(C1CC1)n1cc(-c2nccc(Nc3cc(NC4CCC(CO)CC4)c(-c4ccc(N5CCOCC5)cn4)cn3)n2)cn1 (centres unmarked) [Example 57, ((1s,4s)-4-((6′-((2-(1-(Cyclopropylsulfonyl)-1H-pyrazol-4-yl)pyrimidin-4-yl)amino)-5-morpholino-[2,3′-bipyridin]-4′-yl)amino)cyclohexyl)methanol]	1	636	1.7	4.5	1.7	–	4.8	–	0.7	2
CN1CCN(c2ccnc(-c3cnc(Nc4ccnc(-c5cnn(S(=O)(=O)C6CC6)c5)n4)cc3N[C@H]3CC[C@@](C)(O)CC3)c2)CC1 [Example 58, (1s,4s)-4-((6′-((2-(1-(Cyclopropylsulfonyl)-1H-pyrazol-4-yl)pyrimidin-4-yl)amino)-4-(4-methylpiperazin-1-yl)-[2,3′-bipyridin]-4′-yl)amino)-1-methylcyclohexan-1-ol]	1.1	> 10000	1.1	56.4	7.2	–	97.7	–	1.7	8
Cc1cnc(-c2cnc(Nc3ccnc(-c4cnn(S(=O)(=O)C5CC5)c4)n3)cc2N[C@H]2CC[C@@](C)(O)CC2)cn1 [Example 59, (1s,4s)-4-((2-((2-(1-(Cyclopropylsulfonyl)-1H-pyrazol-4-yl)pyrimidin-4-yl)amino)-5-(5-methylpyrazin-2-yl)pyridin-4-yl)amino)-1-methylcyclohexan-1-ol]	0.7	> 10000	0.4	7.4	0.9	0.5	14.8	0.3	1	0.6
